Assay results from patent US11547102B2, “Method for screening saltiness enhancer using saltiness receptor” (NISSIN FOODS HOLDINGS CO., LTD., priority 2017, dated 2023).

Columns and labels:
[1] = biological target: T1, human TMC4 (hTMC4) (Homo sapiens, UniProt Q7Z404); test: whole cell patch clamp assay using HEK293T cells expressing hTMC4; assay type: cell-based; conditions: 100 μM added to vehicle solution (134 mM NaCl), same cells compared
T1 construct: host or cells: HEK293T
T1 sequence (Q7Z404 1-706 isoform Q7Z404-1): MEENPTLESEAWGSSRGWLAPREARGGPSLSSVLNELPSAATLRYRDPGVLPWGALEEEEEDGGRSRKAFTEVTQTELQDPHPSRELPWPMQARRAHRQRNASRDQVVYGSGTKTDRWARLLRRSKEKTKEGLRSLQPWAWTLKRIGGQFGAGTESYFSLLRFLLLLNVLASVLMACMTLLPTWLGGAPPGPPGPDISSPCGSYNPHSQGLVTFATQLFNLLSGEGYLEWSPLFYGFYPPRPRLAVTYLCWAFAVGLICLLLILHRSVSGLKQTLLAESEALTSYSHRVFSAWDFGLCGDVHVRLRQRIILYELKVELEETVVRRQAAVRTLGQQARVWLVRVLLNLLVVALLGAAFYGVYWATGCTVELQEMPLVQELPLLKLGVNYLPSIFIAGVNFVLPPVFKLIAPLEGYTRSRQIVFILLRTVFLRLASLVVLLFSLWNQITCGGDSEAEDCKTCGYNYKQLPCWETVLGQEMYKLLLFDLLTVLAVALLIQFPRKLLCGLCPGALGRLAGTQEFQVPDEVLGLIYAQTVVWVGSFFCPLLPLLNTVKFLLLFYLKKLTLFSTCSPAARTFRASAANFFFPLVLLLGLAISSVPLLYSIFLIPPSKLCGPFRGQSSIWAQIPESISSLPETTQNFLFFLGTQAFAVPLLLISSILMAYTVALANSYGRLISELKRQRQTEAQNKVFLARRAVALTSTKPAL
Experimental: In order to observe influence of a known salty taste enhancer on TMC4, the whole cell patch clamp assay (whole cell recording) was performed by using HEK293T cells expressing human TMC4 (hTMC4).
The whole cell patch clamp assay was performed in the same manner as in Example 2 except for the following:
1) HEK293T cells expressing human TMC4 (hTMC4) were used; and
2) a 134 mM NaCl solution was used as a vehicle solution, an extracellular fluid obtained by adding 100 μM arginine hydrochloride (Arg-HCl) as a salty taste enhancer to the vehicle solution, and an extracellular fluid (control not enhancing salty taste) obtained by adding 100 μM sucrose or maltose to the vehicle solution were used. A Cl^− current flowing via TMC4 was compared.
As for the hTMC4, a clone of Accession No. BC025323 was purchased from Dharmacon, and inserted between restriction enzyme EcoR1 site and Not1 site of the plasmid pIRES2-AcGFP1 to create an expression construct in the same manner as that for the mTMC4.

[2] = biological target: T2, mouse TMC4 (mTMC4) (Mus musculus, UniProt Q7TQ65); test: whole cell patch clamp assay using HEK293T cells expressing mTMC4; assay type: cell-based; conditions: 100 μM added to the 134 mM NaCl buffer, 25° C.
T2 construct: expressed in transfected cells; host or cells: HEK293T
T2 sequence (Q7TQ65 1-694): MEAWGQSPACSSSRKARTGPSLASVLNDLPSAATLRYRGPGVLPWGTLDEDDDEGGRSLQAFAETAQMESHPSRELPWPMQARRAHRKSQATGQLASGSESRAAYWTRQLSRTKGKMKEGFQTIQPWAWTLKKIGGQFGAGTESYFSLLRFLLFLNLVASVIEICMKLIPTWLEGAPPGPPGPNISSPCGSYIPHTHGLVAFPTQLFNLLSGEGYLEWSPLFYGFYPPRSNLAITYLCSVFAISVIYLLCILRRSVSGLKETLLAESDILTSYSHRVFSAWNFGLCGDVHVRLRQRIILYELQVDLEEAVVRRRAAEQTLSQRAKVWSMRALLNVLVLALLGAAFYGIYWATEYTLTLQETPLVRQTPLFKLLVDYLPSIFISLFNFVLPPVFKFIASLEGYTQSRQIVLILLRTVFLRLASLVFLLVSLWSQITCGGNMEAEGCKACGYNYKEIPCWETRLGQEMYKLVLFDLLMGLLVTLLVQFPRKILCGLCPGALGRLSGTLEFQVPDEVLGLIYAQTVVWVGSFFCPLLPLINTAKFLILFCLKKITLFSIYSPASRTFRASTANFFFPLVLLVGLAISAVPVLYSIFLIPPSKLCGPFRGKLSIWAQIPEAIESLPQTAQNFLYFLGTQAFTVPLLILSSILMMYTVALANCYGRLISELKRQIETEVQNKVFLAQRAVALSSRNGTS
Experimental: In order to check electrophysiological properties of TMC4, a whole cell patch clamp assay (whole cell recording) was performed using HEK293T cells expressing TMC4.
In order to express mouse TMC4 (mTMC4) in HEK293T cells, a plasmid vector pIRES2-AcGFP1 (Clontech Laboratories, Inc.) having a CMV promoter was used. An expression construct in which mTMC4 (sequence of Accession No. NM_181820.2 cloned from cDNA derived from mouse circumvallate papillae epithelium) was inserted between restriction enzyme EcoR1 site and Not1 site of pIRES2-AcGFP1 was transfected at a ratio of 1 μg/35 mm dish. As a transfection reagent, Lipofectamine™ LTX Reagent with PLUS & Reagent™ (Thermo Fisher Scientific K.K.) was used. […]
In the whole cell patch clamp recording using the HEK293T cells, Axopatch 200B (Molecular Devices, LLC.) was used as an amplifier, and digital data was obtained from Digidata 1550 (Axon Instruments, Union City, Calif., USA). The obtained data was analyzed using software pCLAMP 10.2 (Axon Instruments). […]
The measurement was performed with the membrane potential of mTMC4-expressing cells fixed at −60 mV with extracellular fluids successively perfused. A step pulse (400 ms) from −100 mV to +100 mV at intervals of 10 mV was applied to each extracellular fluid to create an I-V curve, and thus, voltage-current characteristics of mTMC4 obtained with different extracellular fluids were measured. […]

OC[C@H]1O[C@H](O[C@H]2[C@H](O)[C@@H](O)C(O)O[C@@H]2CO)[C@H](O)[C@@H](O)[C@@H]1O (mixture of isomers) [maltose]
Cl- current flowing via TMC4 [1]: did not change

O=C(O)c1cc([N+](=O)[O-])ccc1NCCCc1ccccc1 [NPPB, 5-Nitro-2-(3-phenylpropylamino) benzoic acid]
outward Cl- current [2]: completely disappeared

Cl.N=C(N)NCCC[C@H](N)C(=O)O [arginine hydrochloride]
Cl- current flowing via TMC4 [1]: increased

OC[C@H]1O[C@@](CO)(O[C@H]2O[C@H](CO)[C@@H](O)[C@H](O)[C@H]2O)[C@@H](O)[C@@H]1O [sucrose]
Cl- current flowing via TMC4 [1]: did not change
